Data reported in patent US8642642B2, “Heterocyclic arylsulphones suitable for treating disorders that respond to modulation of the serotonin 5HT6 receptor” (Abbott Laboratories, priority 2006, dated 2014).
Where a name gives a salt, the structure may show the parent alone.

Biological target: T1, human 5-HT6 receptor (Homo sapiens, UniProt P50406)
T1 construct: expressed in transfected cells
Assay: Human 5-HT6 receptor binding assay (3H-LSD displacement)
Conditions: membranes from HEK-293 cells, 2 nM 3H-LSD
Procedure: The substance to be tested was either dissolved in methanol/Chremophor® (BASF-AG) or in dimethyl sulfoxide and then diluted with water to the desired concentration.
The compounds were dissolved in a concentration of 10^−2 M or 10^−3 M in DMSO. Further dilutions were performed in incubation buffer.
The procedure for the binding assay was based on the method of Monsma et al. (1993) Mol Pharmacol 43: 320-327. The binding reaction was carried out in a total volume of 0.250 ml for 60 min at 37° C. Membranes from HEK-293 cells stably expressing the human 5-HT6 receptor were incubated with 2 nM ^3H-LSD in the presence or absence of various concentrations of test compound for 60 min at 37° C. Non-specific binding was defined with 100 μM Serotonin (5-HT). Assays were performed in duplicate. Bound and free radioligand was separated by filtration and bound radioactivity determined by liquid scintillation counting.
The specific ligand binding to the receptors was defined as the difference between the total binding and the nonspecific binding determined in the presence of an excess of unlabelled 5-HT. The results are expressed as a percent of control specific binding obtained in the presence of compound. The IC50 values (concentration causing a half-maximal inhibition of control specific binding) and Hill coefficients (nH) were determined by non-linear regression analysis of the competition curves using Hill equation curve fitting.
The inhibition constants (Ki) were calculated from the Cheng Prusoff equation (Ki=IC50/(1+(L/KD)), where L=concentration of radioligand in the assay, and KD=affinity of the radioligand for the receptor).

T1 sequence (P50406 whole entry): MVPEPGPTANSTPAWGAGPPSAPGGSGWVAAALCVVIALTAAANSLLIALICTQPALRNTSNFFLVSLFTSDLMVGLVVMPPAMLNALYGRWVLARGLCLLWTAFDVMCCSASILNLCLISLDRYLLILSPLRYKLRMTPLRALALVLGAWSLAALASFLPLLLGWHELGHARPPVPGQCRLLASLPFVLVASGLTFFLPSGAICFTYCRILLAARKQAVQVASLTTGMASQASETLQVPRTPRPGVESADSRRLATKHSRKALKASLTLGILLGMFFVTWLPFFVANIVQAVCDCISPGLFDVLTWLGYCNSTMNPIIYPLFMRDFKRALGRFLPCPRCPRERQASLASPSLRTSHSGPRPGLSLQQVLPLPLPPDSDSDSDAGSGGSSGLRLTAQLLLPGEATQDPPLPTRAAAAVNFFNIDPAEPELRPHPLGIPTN

**Q.** How did the Ki turn out when CCCN1CC[C@@H](c2ccc(NS(=O)(=O)c3cccc(OC(F)(F)F)c3)cc2)C1 [Example 1, 3-Trifluoromethoxy-N-[4-((S)-1-propyl-pyrrolidin-3-yl)-phenyl]-benzenesulfonamide and its hydrochloride] was run?
**A.** Its Ki is 10 to 50 nM.

**Q.** With O=S(=O)(Nc1cccc(C2CCNC2)c1)c1cccc(OC(F)(F)F)c1 (centres unmarked) [Example 6, N-(3-Pyrrolidin-3-yl-phenyl)-3-trifluoromethoxy-benzenesulfonamide] as the molecule, how does the Ki read?
**A.** Its Ki is 1 to 10 nM.

**Q.** How did the Ki turn out when O=S(=O)(Nc1cccc([C@@H]2CCNC2)c1)c1cccc(OC(F)(F)F)c1 [Example 7, N—((S)-3-Pyrrolidin-3-yl-phenyl)-3-trifluoromethoxy-benzene sulfonamide] was run?
**A.** Its Ki is 1 to 10 nM.

**Q.** CCCN1CCC(c2cc(NS(=O)(=O)c3cccc(OC(F)(F)F)c3)ccc2OC)C1 (centres unmarked) [Example 8, N-[4-Methoxy-3-(1-propyl-pyrrolidin-3-yl)-phenyl]-3-trifluoromethoxy-benzenesulfonamide] was tested. Which Ki did it give?
**A.** Its Ki is 10 to 50 nM.

**Q.** For Cc1c(S(=O)(=O)Nc2cccc(C3CNC3)c2)sc2ccc(Cl)cc12 [Example 9, 5-Chloro-3-methyl-benzo[b]thiophene-2-sulfonic acid (3-azetidin-3-yl-phenyl)-amide], which Ki is on record?
**A.** The Ki was 1 to 10 nM.

**Q.** Which Ki does the source give for Cc1nc(-c2cccc(S(=O)(=O)Nc3cccc(C4CNC4)c3)c2)cs1 [Example 10, N-(3-Azetidin-3-yl-phenyl)-3-(2-methyl-thiazol-4-yl)-benzenesulfonamide] here?
**A.** Its Ki is 1 to 10 nM.

**Q.** O=S(=O)(Nc1ccc(C2CNC2)cc1)c1cccc(C(F)(F)F)c1 [Example 11, N-(4-Azetidin-3-yl-phenyl)-3-trifluoromethyl-benzenesulfonamide] was tested. Which Ki did it give?
**A.** The Ki was 1 to 10 nM.

**Q.** Which Ki does the source give for O=S(=O)(Nc1cccc(C2CNC2)c1)c1cccs1 [Example 12, Thiophene-2-sulfonic acid (3-azetidin-3-yl-phenyl)-amide] here?
**A.** Its Ki is 10 to 50 nM.

**Q.** For O=S(=O)(Nc1cccc(C2CNC2)c1)c1cc(C(F)(F)F)cc(C(F)(F)F)c1 [Example 13, N-(3-Azetidin-3-yl-phenyl)-3,5-bis-trifluoromethyl-benzenesulfonamide], which Ki is on record?
**A.** The Ki was 10 to 50 nM.

**Q.** Which Ki does the source give for COc1ccc(OC)c(S(=O)(=O)Nc2cccc(C3CNC3)c2)c1 [Example 14, N-(3-Azetidin-3-yl-phenyl)-2,5-dimethoxy-benzenesulfonamide] here?
**A.** Its Ki is 1 to 10 nM.

**Q.** How did the Ki turn out when O=S(=O)(Nc1cccc(C2CNC2)c1)c1cccc(F)c1 [Example 15, N-(3-Azetidin-3-yl-phenyl)-3-fluoro-benzenesulfonamide] was run?
**A.** The Ki was 1 to 10 nM.

**Q.** With O=S(=O)(Nc1cccc(C2CNC2)c1)c1cc(Cl)sc1Cl [Example 16, 2,5-Dichloro-thiophene-3-sulfonic acid (3-azetidin-3-yl-phenyl)-amide] as the molecule, how does the Ki read?
**A.** The Ki was 1 to 10 nM.

**Q.** How did the Ki turn out when O=S(=O)(Nc1cccc(C2CNC2)c1)c1cccc(Cl)c1 [Example 17, N-(3-Azetidin-3-yl-phenyl)-3-chloro-benzenesulfonamide] was run?
**A.** Its Ki is less than 1 nM.

**Q.** Which Ki does the source give for O=S(=O)(Nc1cccc(C2CNC2)c1)c1cc(Cl)cc(Cl)c1 [Example 18, N-(3-Azetidin-3-yl-phenyl)-3,5-dichloro-benzenesulfonamide] here?
**A.** Its Ki is 1 to 10 nM.

**Q.** How did the Ki turn out when Cc1cccc(S(=O)(=O)Nc2cccc(C3CNC3)c2)c1 [Example 19, N-(3-Azetidin-3-yl-phenyl)-3-methyl-benzenesulfonamide] was run?
**A.** Its Ki is 1 to 10 nM.

**Q.** Which Ki does the source give for COc1ccc(Br)cc1S(=O)(=O)Nc1cccc(C2CNC2)c1 [Example 20, N-(3-Azetidin-3-yl-phenyl)-5-bromo-2-methoxy-benzenesulfonamide] here?
**A.** The Ki was less than 1 nM.

**Q.** For O=S(=O)(Nc1cccc(C2CNC2)c1)c1ccc(S(=O)(=O)c2ccccc2)s1 [Example 21, 5-Benzenesulfonyl-thiophene-2-sulfonic acid (3-azetidin-3-yl-phenyl)-amide], which Ki is on record?
**A.** Its Ki is 50 to 150 nM.

**Q.** COc1ccc(C)cc1S(=O)(=O)Nc1cccc(C2CNC2)c1 [Example 22, N-(3-Azetidin-3-yl-phenyl)-2-methoxy-5-methyl-benzenesulfonamide] was tested. Which Ki did it give?
**A.** Its Ki is 1 to 10 nM.

**Q.** With CSc1nccc(-c2ccc(S(=O)(=O)Nc3cccc(C4CNC4)c3)s2)n1 [Example 23, 5-(2-Methylsulfanyl-pyrimidin-4-yl)-thiophene-2-sulfonic acid (3-azetidin-3-yl-phenyl)-amide] as the molecule, how does the Ki read?
**A.** Its Ki is 10 to 50 nM.

**Q.** With N#Cc1cccc(S(=O)(=O)Nc2cccc(C3CNC3)c2)c1 [Example 24, N-(3-Azetidin-3-yl-phenyl)-3-cyano-benzenesulfonamide] as the molecule, how does the Ki read?
**A.** The Ki was 50 to 150 nM.

**Q.** For COc1cccc(S(=O)(=O)Nc2cccc(C3CNC3)c2)c1 [Example 25, N-(3-Azetidin-3-yl-phenyl)-3-methoxy-benzenesulfonamide], which Ki is on record?
**A.** The Ki was 1 to 10 nM.

**Q.** How did the Ki turn out when Cc1c(S(=O)(=O)Nc2ccc(C3CNC3)cc2)sc2ccc(Cl)cc12 [Example 26, 5-Chloro-3-methyl-benzo[b]thiophene-2-sulfonic acid (4-azetidin-3-yl-phenyl)-amide] was run?
**A.** The Ki was 1 to 10 nM.

**Q.** O=S(=O)(Nc1cccc(C2CNC2)c1)c1cccc(C(F)(F)F)c1 [Example 31, N-(3-Azetidin-3-yl-phenyl)-3-trifluoromethyl-benzenesulfonamide] was tested. Which Ki did it give?
**A.** Its Ki is 1 to 10 nM.

**Q.** How did the Ki turn out when O=S(=O)(Nc1cccc(C2CNC2)c1)c1cccc(OC(F)(F)F)c1 [Example 32, N-(3-Azetidin-3-yl-phenyl)-3-trifluoromethoxy-benzenesulfonamide] was run?
**A.** Its Ki is 1 to 10 nM.

**Q.** Which Ki does the source give for CCCN1CC[C@@H](c2ccc(NS(=O)(=O)c3cccc([C@H](C)C(F)F)c3)cc2)C1 [Example 34, 3-((S)-2,2-Difluoro-1-methyl-ethyl)-N-[4-((S)-1-propyl-pyrrolidin-3-yl)-phenyl]-benzenesulfonamide] here?
**A.** Its Ki is 10 to 50 nM.

**Q.** With CCCN1CC(c2ccc(NS(=O)(=O)c3cc(Cl)ccc3Cl)cc2)C1 [Example 40, 2,5-Dichloro-N-[4-(1-propyl-azetidin-3-yl)-phenyl]-benzenesulfonamide] as the molecule, how does the Ki read?
**A.** Its Ki is 50 to 150 nM.

**Q.** CCCN1CC(c2ccc(NS(=O)(=O)c3cc(C(F)(F)F)cc(C(F)(F)F)c3)cc2)C1 [Example 42, N-[4-(1-Propyl-azetidin-3-yl)-phenyl]-3,5-bis-trifluoromethyl-benzenesulfonamide] was tested. Which Ki did it give?
**A.** Its Ki is 50 to 150 nM.

**Q.** With CCCN1CC(c2ccc(NS(=O)(=O)c3cc(C)ccc3C)cc2)C1 [Example 43, 2,5-Dimethyl-N-[4-(1-propyl-azetidin-3-yl)-phenyl]-benzenesulfonamide] as the molecule, how does the Ki read?
**A.** Its Ki is 10 to 50 nM.

**Q.** Which Ki does the source give for CCCN1CC(c2ccc(NS(=O)(=O)c3ccc(F)c(Cl)c3)cc2)C1 [Example 44, 3-Chloro-4-fluoro-N-[4-(1-propyl-azetidin-3-yl)-phenyl]-benzenesulfonamide] here?
**A.** Its Ki is 50 to 150 nM.

**Q.** Which Ki does the source give for CCCN1CC(c2ccc(NS(=O)(=O)c3cccc(F)c3)cc2)C1 [Example 45, 3-Fluoro-N-[4-(1-propyl-azetidin-3-yl)-phenyl]-benzenesulfonamide] here?
**A.** The Ki was 10 to 50 nM.

**Q.** CCCN1CC(c2ccc(NS(=O)(=O)c3cc(Cl)sc3Cl)cc2)C1 [Example 46, 2,5-Dichloro-thiophene-3-sulfonic acid [4-(1-propyl-azetidin-3-yl)-phenyl]-amide] was tested. Which Ki did it give?
**A.** Its Ki is 50 to 150 nM.

**Q.** With CCCN1CC(c2ccc(NS(=O)(=O)c3ccc(Cl)s3)cc2)C1 [Example 47, 5-Chloro-thiophene-2-sulfonic acid [4-(1-propyl-azetidin-3-yl)-phenyl]-amide] as the molecule, how does the Ki read?
**A.** Its Ki is 10 to 50 nM.

**Q.** Which Ki does the source give for CCCN1CC(c2ccc(NS(=O)(=O)c3cccc(Cl)c3)cc2)C1 [Example 48, 3-Chloro-N-[4-(1-propyl-azetidin-3-yl)-phenyl]-benzenesulfonamide] here?
**A.** The Ki was 10 to 50 nM.

**Q.** For CCCN1CC(c2ccc(NS(=O)(=O)c3cc(Cl)cc(Cl)c3)cc2)C1 [Example 49, 3,5-Dichloro-N-[4-(1-propyl-azetidin-3-yl)-phenyl]-benzenesulfonamide], which Ki is on record?
**A.** The Ki was 10 to 50 nM.

**Q.** For CCCN1CC(c2ccc(NS(=O)(=O)c3cccc(C)c3)cc2)C1 [Example 50, 3-Methyl-N-[4-(1-propyl-azetidin-3-yl)-phenyl]-benzenesulfonamide], which Ki is on record?
**A.** Its Ki is 50 to 150 nM.

**Q.** How did the Ki turn out when CCCN1CC(c2ccc(NS(=O)(=O)c3cccc(Cl)c3Cl)cc2)C1 [Example 51, 2,3-Dichloro-N-[4-(1-propyl-azetidin-3-yl)-phenyl]-benzenesulfonamide] was run?
**A.** Its Ki is 50 to 150 nM.

**Q.** CCCN1CC(c2ccc(NS(=O)(=O)c3cccc(Br)c3)cc2)C1 [Example 52, 3-Bromo-N-[4-(1-propyl-azetidin-3-yl)-phenyl]-benzenesulfonamide] was tested. Which Ki did it give?
**A.** Its Ki is 10 to 50 nM.

**Q.** How did the Ki turn out when CCCN1CC(c2ccc(NS(=O)(=O)c3ccc(F)c(F)c3)cc2)C1 [Example 54, 3,4-Difluoro-N-[4-(1-propyl-azetidin-3-yl)-phenyl]-benzenesulfonamide] was run?
**A.** Its Ki is 50 to 150 nM.

**Q.** Which Ki does the source give for O=S(=O)(Nc1cccc(C2CCCNC2)c1)c1cccc(OC(F)(F)F)c1 (centres unmarked) [Example 63, N-(3-Piperidin-3-yl-phenyl)-3-trifluoromethoxy-benzenesulfonamide hydrochloride] here?
**A.** The Ki was 10 to 50 nM.

**Q.** With CCCN1CC[C@@H](c2ccc(NS(=O)(=O)c3cccc(C#N)c3)cc2)C1 [Example 64, 3-Cyano-N-[4-((S)-1-propyl-pyrrolidin-3-yl)-phenyl]-benzenesulfonamide hydrochloride] as the molecule, how does the Ki read?
**A.** The Ki was 50 to 150 nM.

**Q.** How did the Ki turn out when O=S(=O)(Nc1cccc([C@@H]2CCN(Cc3ccccc3)C2)c1)c1cccc(C(F)(F)F)c1 [Example 65, N-[3-((S)-1-Benzyl-pyrrolidin-3-yl)-phenyl]-3-trifluoromethyl-benzene sulfonamide] was run?
**A.** The Ki was 10 to 50 nM.
